From paper PMC7766155, “Improved Stability and Activity of a Marine Peptide-N6NH2 against Edwardsiella tarda and Its Preliminary Application in Fish” (Marine Drugs, 2020)
In brackets after ≈: the same amount, converted by molar mass. Where two headings read alike, the source gives them in different places. Where a SMILES comes first, the peptide text is derived from it. Bridges are numbered along the chain shown (N, C = ends).

Tests used:
E. tarda [1] = assay type: cell-based, Edwardsiella tarda
Experimental: (§1) All tests were conducted in triplicate.

E. tarda [2] = experiment: Thermal stability (residual antibacterial activity, inhibition zone); assay type: physicochemical, Edwardsiella tarda; details: incubated 1 h at 100 °C; N6 128 μg/mL; inhibition zone method vs untreated peptide; triplicate
Experimental: To evaluate the thermal stability of peptides, N6 and N6NH2 were incubated for 1 h at 4, 20, 40, 60, 80 and 100 °C. To measure the pH stability, peptides were incubated for 3 h in 100 mM glycine-HCl buffer (pH 2.0), sodium acetate buffer (pH 4.0), sodium phosphate buffer (pH 6.0), Tris-HCl buffer (pH 8.0) or glycine-NaOH buffer (pH 10.0). In addition, peptides were incubated for 4 h at 37 °C in pepsin (3,000 U/mg, pH 2.0) and trypsin (250 U/mg, pH 8.0) (10:1, w/w) solutions, respectively. […] After treatment, 30 μL of solutions were taken out to determine the antibacterial activity of peptides against E. tarda by the inhibition zone method. The untreated peptides were used as the control. All tests were conducted in triplicate.

[3] = test system: inner membrane of E. tarda; experiment: Inner membrane penetration, PI staining, flow cytometry; assay type: cell-based, Edwardsiella tarda
Experimental: After washing twice with PBS, the cells were incubated with PI (50 μg/mL) for 15 min and analyzed using a FACS Calibur Flow Cytometer (BD, San Jose, CA, USA).

E. tarda genomic DNA = experiment: Gel migration (DNA binding) assay; design: species or system Edwardsiella tarda; details: 0.25 μg DNA, 10 min at room temperature, 0.7% agarose gel; mass ratios 0–10 tested
Experimental: (§2) The genomic DNA of E. tarda or O. niloticus was incubated for 10 min at room temperature with different concentrations of N6 and N6NH2 in binding buffer (5% glycerol, 10 mM Tris-HCl, pH 8.0, 20 mM KCl, 1 mM EDTA, 1 mM dithiothreitol and […] BSA). The mass ratios of peptides and DNA were 0, 0.5, 1, 2, 4, 6, 8, and 10, respectively. The migration of DNA was evaluated by electrophoresis on a 0.7% agarose gel.

fish genome DNA = experiment: Gel migration (DNA binding) assay; details: O. niloticus genomic DNA, Supplementary Figure S2
Experimental: as §2

[4] = test system: Escherichia coli, S. typhimurium, S. enteritidis and S. pullorum; experiment: organism not typed; assay type: cell-based
Experimental: as §1

[5] = test system: Pseudomonas aeruginosa CICC21630
[6] = broth microdilution, MHB, 1 × 10^5 CFU/mL, 37 °C 18–24 h, n = 3, some N6 data from ref 19

CC(C)[C@@H]1NC(=O)CNC(=O)[C@H](CC(N)=O)NC(=O)[C@H](CCCNC(=N)N)NC(=O)[C@H](Cc2ccc(O)cc2)NC(=O)[C@H](C(C)C)NC(=O)[C@@H](NC(=O)[C@@H](NC(=O)[C@H](CC(N)=O)NC(=O)[C@H](Cc2c[nH]c3ccccc23)NC(=O)[C@H](C)NC(=O)[C@H](Cc2ccccc2)NC(=O)CN)C(C)C)CSSC[C@@H](C(=O)N[C@@H](Cc2c[nH]cn2)C(=O)N[C@@H](CCCNC(=N)N)C(=O)N[C@@H](CCCNC(=N)N)C(=O)N[C@@H](C)C(=O)N[C@@H](CC(N)=O)C(=O)O)NC(=O)[C@H](C(C)C)NC(=O)[C@H](CCCNC(=N)N)NC1=O [Peptide N6] (H-GFAWNVCVYRNGVRVCHRRAN-OH; disulfide 7-16; N-terminus assumed)
MBC (E. tarda [1]): 12.8 µg/mL (≈ 5.17 µM) | decrease of antimicrobial activity against E. tarda after heating (E. tarda [2]): 6.7% | percentage of E. tarda stained with PI ([3]; 4 × MIC, 120 min, 1 × 10^8 CFU/mL, PI 50 μg/mL, flow cytometry): 77.7% | percentage of E. tarda stained with PI ([3]; within 30 min, 1×, 2× and 4× MIC): less than 5% | mass ratio of peptide and DNA at which migration of E. tarda genome DNA is inhibited (E. tarda genomic DNA): greater than 1 | mass ratio at which migration of fish genome DNA is prevented (fish genome DNA): 2 | MIC [4]: 0.25 to 4 µg/mL | MIC (E. coli CVCC25922; CVCC25922): 0.1 µM | MIC (E. coli CVCC25922; [6]): 0.25 µg/mL | MIC (S. pullorum CVCC1802; CVCC1802): 0.2 µM | MIC (S. pullorum CVCC1802; [6]): 0.5 µg/mL | MIC (S. pullorum CVCC1789; CVCC1789): 0.2 µM | MIC (S. pullorum CVCC1789; [6]): 0.5 µg/mL | MIC ([5]; CICC21630): 1.6 µM | MIC [5, 6]: 4 µg/mL | MIC (S. hyicus 15095): 6.46 µM | MIC (S. hyicus 15095; [6]): 16 µg/mL
